Where a name gives a salt, the structure may show the parent alone.

Data set [1] can be described thus: NOVARTIS: Cytotoxicity against human hepatocellular carcinoma cell line (Huh7). It is filed as toxicity, cell-based, Huh-7. The settings on record: Huh7 cells (hepatocellular carcinoma cell line).
Data set [2] concerns Plasmodium falciparum. In words: NOVARTIS: Inhibition of Plasmodium falciparum 3D7 (drug-susceptible) proliferation in erythrocyte-based infection assay. It counts as functional, organism-based. The note with it: Plasmodium falciparum, 3D7.
The test system of data set [3] is Plasmodium falciparum. In words: NOVARTIS: Inhibition of Plasmodium falciparum W2 (drug-resistant) proliferation in erythrocyte-based infection assay. The settings on record: Plasmodium falciparum, W2; read-out: EC50. It counts as functional, organism-based.

By CC50 is commonly meant the concentration at which the toxic effect on the cells reaches its halfway point. Low readings indicate greater toxicity to the cells, high ones lower toxicity to the cells. The term EC50 denotes the concentration that produces a half-maximal response. In data set [1], `CC[C@H]1CN2CCc3cc(OC)c(OC)cc3[C@@H]2C[C@@H]1C[C@H]1NCCc2cc(O)c(OC)cc21` [CEPHAELINE HYDROBROMIDE] displayed a CC50 of 26.1 nM. The EC50 in the data set with Plasmodium falciparum [2] worked out at 3.61 nM; in the data set on Plasmodium falciparum [3] it was 4.23 nM.
The like results for `CC1(C)N=C(N)N=C(N)N1c1ccc(Cl)cc1` [CHLORCYCLOGUANIL HYDROCHLORIDE] were, in that order, 27400 nM, 0.986 nM and 884 nM.
The like results for `CCN(CC)CCCC(C)Nc1ccnc2cc(Cl)ccc12` (stereo unspecified) [CHLOROQUINE] were, in that order, 12400 nM, 2.43 nM and 83.7 nM.
The like results for `C=C[C@H]1CN2CC[C@H]1C[C@@H]2[C@@H](O)c1ccnc2ccccc12` [CINCHONINE] were, in that order, greater than 6250 nM, 95.3 nM and 110 nM.
Regarding `CC(CCCNCCO)Nc1ccnc2cc(Cl)ccc12` (stereo unspecified) [CLETOQUINE], in data set [1], the CC50 was found to be 14000 nM. Further, the EC50 with Plasmodium falciparum [2] was found to be 26.9 nM; with Plasmodium falciparum [3] it was 736 nM.
In data set [1], `Clc1ccccc1C(c1ccccc1)(c1ccccc1)n1ccnc1` [CLOTRIMAZOLE] showed a CC50 of 25800 nM. Besides, the EC50 in the data set on Plasmodium falciparum [2] was 280 nM; with Plasmodium falciparum [3] it was 338 nM.
The like results for `C[C@@H]1C[C@@H]([C@H](O)CC2CC(=O)NC(=O)C2)C(=O)[C@@H](C)C1` [CYCLOHEXIMIDE] were, in that order, greater than 100000 nM, 114 nM and 182 nM.
For `Cc1cc(N)c2ccccc2[n+]1CCCCCCCCCC[n+]1c(C)cc(N)c2ccccc21` [DEQUALINIUM CHLORIDE], the CC50 in data set [1] turned out to be 31000 nM. For the same compound, the results for the EC50 with Plasmodium falciparum [2] and in the data set with Plasmodium falciparum [3] were 61.4 nM and 19.7 nM, respectively.
The like results for `N[C@@H](COP(=O)(O)O)C(=O)O` [DEXFOSFOSERINE] were, in that order, greater than 10000 nM, 1080 nM and greater than 1060 nM.
The compound `CC(C)[C@@]1(NC(=O)[C@@H]2C[C@@H]3c4cccc5[nH]cc(c45)C[C@H]3N(C)C2)O[C@@]2(O)[C@@H]3CCCN3C(=O)[C@H](Cc3ccccc3)N2C1=O` [DIHYDROERGOCRISTINE] returned a CC50 in data set [1] of 33100 nM. The EC50 in the data set on Plasmodium falciparum [2] worked out at 1250 nM; in the data set on Plasmodium falciparum [3], 449 nM.
The like results for `CCC1CN2CCC1CC2[C@@H](O)c1ccnc2ccc(OC)cc12` (stereo partly specified) [DIHYDROQUINIDINE] were, in that order, greater than 96000 nM, 27.3 nM and 25.7 nM.
The like results for `CS[C@H]1SC[C@H]2C(=O)N(C)[C@@H](C(C)C)C(=O)OC[C@@H](NC(=O)c3cnc4ccccc4n3)C(=O)N[C@@H](C)C(=O)N(C)[C@@H]1C(=O)N(C)[C@@H](C(C)C)C(=O)OC[C@@H](NC(=O)c1cnc3ccccc3n1)C(=O)N[C@@H](C)C(=O)N2C` [ECHINOMYCIN] were, in that order, greater than 10000 nM, 73.7 nM and 524 nM.
The like results for `CCC(Cc1cnc2nc(N)nc(N)c2n1)c1ccc(C(=O)N[C@@H](CCC(=O)O)C(=O)O)cc1` (stereo partly specified) [EDATREXATE] were, in that order, 30.4 nM, 14.8 nM and 108 nM.
For the compound `CC[C@H]1CN2CCc3cc(OC)c(OC)cc3[C@@H]2C[C@@H]1C[C@H]1NCCc2cc(OC)c(OC)cc21` [EMETINE], in data set [1], the 50% cytotoxic concentration (CC50) turned out to be 116 nM. Moreover, the figures for the EC50 in the data set with Plasmodium falciparum [2] and in the data set with Plasmodium falciparum [3] were 10.1 nM and 22.9 nM, respectively.
The like results for `O=C1c2ccccc2-[n+]2ccc3c([nH]c4ccccc43)c21` [FASCAPLYSIN CHLORIDE] were, in that order, 589 nM, 74.9 nM and 46.4 nM.
The like results for `CN(C)c1ccc(C(=C2C=CC(=[N+](C)C)C=C2)c2ccc(N(C)C)cc2)cc1` [GENTIAN VIOLET] were, in that order, 1430 nM, 22.1 nM and 170 nM.
Turning to `CCn1ccnc1CC1COc2ccccc2O1` (stereo unspecified) [IMILOXAN HYDROCHLORIDE], the CC50 in data set [1] is greater than 10000 nM. Moreover, the EC50 in the data set with Plasmodium falciparum [2] is greater than 1040 nM; in the data set with Plasmodium falciparum [3] it was 443 nM.
The like results for `COc1cc2c(cc1O)CC[n+]1cc3c(OC)c(OC)ccc3cc1-2` [JATRORRHIZINE CHLORIDE] were, in that order, 8940 nM, 939 nM and 1660 nM.
The like results for `CCCCN(CCCC)CC(O)c1cc(Cl)cc2c1-c1ccc(Cl)cc1/C2=C/c1ccc(Cl)cc1` (stereo unspecified) [LUMEFANTRINE] were, in that order, greater than 10000 nM, 777 nM and 518 nM.
For the compound `O[C@H]1[C@H]2c3cc4c(cc3CN3CCC(=C[C@@H]1O)[C@H]23)OCO4` [LYCORINE], the CC50 in data set [1] is 66100 nM. The EC50 with Plasmodium falciparum [2] is 607 nM; in the data set on Plasmodium falciparum [3], 156 nM.
Turning to `OC(c1cc(C(F)(F)F)nc2c(C(F)(F)F)cccc12)C1CCCCN1` (stereo unspecified) [MEFLOQUINE], the midpoint of cytotoxicity in data set [1], the CC50, lay at 18800 nM. Moreover, the EC50 was 24.8 nM in the data set on Plasmodium falciparum [2] and 8.14 nM in the data set on Plasmodium falciparum [3].
The compound `O=C(NCCN1CCOCC1)c1ccc(Cl)cc1` [MOCLOBEMIDE] returned a CC50 in data set [1] greater than 10000 nM. For the same compound, the EC50 with Plasmodium falciparum [2] was greater than 740 nM; with Plasmodium falciparum [3], greater than 1250 nM.
`Cc1ccc2ccc3ccc(C)nc3c2n1` [NEOCUPROINE]: in data set [1], the CC50 was greater than 100000 nM. The EC50 in the data set with Plasmodium falciparum [2] is 97.1 nM; in the data set on Plasmodium falciparum [3], 24.3 nM.
The like results for `CCCCCCCCCCCC(OC(=O)C(CCCCN(O)C(C)=O)NC(=O)c1coc(-c2ccccc2O)n1)C(C)C(=O)NC1CCCCN(O)C1=O` (stereo unspecified) [NOCARDIMICIN B] were, in that order, greater than 10000 nM, greater than 864 nM and 2.24 nM.
The like results for `C[C@@H]1C[C@H]2CC[C@H](O2)[C@H](C)C(=O)O[C@@H](C)C[C@@H]2CC[C@@H](O2)[C@@H](C)C(=O)O[C@H](C)C[C@H]2CC[C@@H](O2)[C@H](C)C(=O)O[C@@H](C)C[C@@H]2CC[C@@H](O2)[C@@H](C)C(=O)O1` [NONACTIN] were, in that order, 3530 nM, 433 nM and 359 nM.
As to `NC(=O)CN1CC(O)CC1=O` (stereo unspecified) [OXIRACETAM], it took 57500 nM to reach half-maximal cytotoxicity in data set [1] (CC50). Moreover, the EC50 with Plasmodium falciparum [2] was determined as 5960 nM; in the data set with Plasmodium falciparum [3], 6220 nM.
The like results for `COc1cc2c(cc1OC)-c1cc3ccc(OC)c(OC)c3c[n+]1CC2` [PALMATINE CHLORIDE] were, in that order, greater than 100000 nM, 697 nM and 766 nM.
The like results for `C/C(=C\c1csc(C)n1)[C@@H]1C[C@@H]2O[C@]2(C)CCC[C@H](C)[C@H](O)[C@@H](C)C(=O)C(C)(C)[C@@H](O)CC(=O)O1` [PATUPILONE] were, in that order, greater than 6250 nM, 4.09 nM and greater than 1250 nM.
The like results for `N=C(N)c1ccc(OCCCCCOc2ccc(C(=N)N)cc2)cc1` [PENTAMIDINE] were, in that order, greater than 6250 nM, 66.2 nM and 68.7 nM.
With `O=C1C(=O)c2ncccc2-c2cccnc21` [PHANQUONE], the midpoint of cytotoxicity in data set [1], the CC50, lay at 5910 nM. Moreover, the EC50 with Plasmodium falciparum [2] is 644 nM; in the data set with Plasmodium falciparum [3] it was 369 nM.
The like results for `O=C(Nc1ccc(Cl)cc1)Oc1ccccc1` [PHENYL 4-CHLOROPHENYLCARBAMATE] were, in that order, 51900 nM, greater than 12500 nM and 2010 nM.
The like results for `COC(=O)[C@]1(C)CC[C@]2(C)CC[C@]3(C)C4=CC=C5C(=CC(=O)C(O)=C5C)[C@]4(C)CC[C@@]3(C)[C@@H]2C1` [PRISTIMERIN] were, in that order, greater than 6250 nM, greater than 1250 nM and greater than 820 nM.

The values above are taken from ChEMBL document CHEMBL1156829 (Proc Natl Acad Sci U S A, 2008).
